Drawing on patent US11773085B2 (Foghorn Therapeutics Inc., priority 2018, dated 2023), this text covers IC50 for 42 molecules.

For orientation: IC50 means the concentration needed to halve the response being measured. Read a low IC50 as higher potency.

This test deals with BRD9 bromodomain (Homo sapiens (Human), UniProt Q9H8M2). Description: BRD9 bromodomain TR-FRET competition binding assay. The settings on record: 3 nM Flag-BRD9, 3.75 nM biotinylated ligand, 90 minutes at room temperature. How it is done: Cleaved His tag was removed by purification.
A mixture of biotinylated-ligand and SureLight™ Allophycocyanin-Streptavidin (APC-SA, PerkinElmer AD0201) in 50 mM HEPES (pH 7.4), 50 mM NaCl, 1 mM TCEP (pH 7), 0.01% (v/v) Tween-20, 0.01% (w/v) bovine serum albumin was added to a white 384-well PerkinElmer Proxiplate Plus plate. DMSO or 3-fold serially diluted compounds were then added to the Proxiplate followed by addition of Flag-BRD9. After a 10 minute incubation at room temperature, Eu-W1024 anti-FLAG (PerkinElmer, AD0273) was added.
For orientation: In TR-FRET formats the signal depends on donor and acceptor labels being close together.

Some results are limits rather than exact numbers.

`Cn1cc(C(=O)NCc2ccccc2)c2ccncc2c1=O` [Compound B3] showed an IC50 greater than 1000 nM.

The molecule `Cn1cc(C(=O)NCc2cccc3ccccc23)c2cn[nH]c2c1=O` [Compound B4] showed an IC50 greater than 1000 nM.

Consider `Cn1cc(C(=O)NCc2ccccc2)c2cn[nH]c2c1=O` [Compound B5], for which the IC50 is greater than 1000 nM.

`CCNC(=O)c1cn(C)c(=O)c2[nH]ncc12` [Compound B6] came in with an IC50 greater than 1000 nM.

In the case of `CN(Cc1ccccc1)C(=O)c1cn(C)c(=O)c2[nH]ncc12` [Compound B7], the IC50 was greater than 1000 nM.

In turn, `Cn1cc(C(=O)Nc2ccccc2)c2cn[nH]c2c1=O` [Compound B8] showed an IC50 greater than 1000 nM.

Take `CCn1cc(C(=O)NCc2ccccc2)c2cn[nH]c2c1=O` [Compound B9]: the IC50 is greater than 1000 nM.

Take `CCCn1cc(C(=O)NCc2ccccc2)c2cn[nH]c2c1=O` [Compound B10]: the IC50 was greater than 1000 nM.

For `CCN(C)C(=O)c1cn(C)c(=O)c2[nH]ncc12` [Compound B11], the IC50 is greater than 1000 nM.

`CC(C)n1cc(C(=O)NCc2ccccc2)c2cn[nH]c2c1=O` [Compound B12]: the IC50 was greater than 1000 nM.

`O=C(NCc1ccccc1)c1cn(CC2CC2)c(=O)c2[nH]ncc12` [Compound B13] yielded an IC50 greater than 1000 nM.

In turn, `CNCc1ccc(-c2cn(C)c(=O)c3[nH]ccc23)cc1` [Compound B14] yielded an IC50 of 10 to 100 nM.

Molecule `C/C=C/Cn1cc(-c2ccc(CNC)c(C#N)c2)c2cc(C)[nH]c2c1=O` [Compound B15] had an IC50 of 10 to 100 nM.

Molecule `CC(=O)c1cc(-c2cccc3nccn23)c2cc(N3CCOCC3)ccn12` [Compound B16, 1-(1-[imidazo[1,2-a]pyridin-5-yl]-7-(morpholin-4-yl)indolizin-3-yl)ethan-1-one] showed an IC50 of 100 to 1000 nM.

Regarding `CC(=O)c1cc(-c2cccc3nccn23)c2cc(N3CCN(C)CC3)ccn12` [Compound B17, 1-(1-[imidazo[1,2-a]pyridin-5-yl]-7-(4-methylpiperazin-1-yl)indolizin-3-yl)ethan-1-one], the IC50 was in the range of 100 to 1000 nM.

In the case of `CNCc1c(OC)cc(-c2cn(C3CC3)c(=O)c3cnccc23)cc1OC` [Compound B18, 2-cyclopropyl-4-[3,5-dimethoxy-4-[(methylamino)methyl]phenyl]-2,7-naphthyridin-1-one], the IC50 was 10 to 100 nM.

`CC(=O)c1cc(-c2cccc3nccn23)c2cc(N3CCNCC3)ccn12` [Compound B19, 1-(1-[imidazo[1,2-a]pyridin-5-yl]-7-(piperazin-1-yl)indolizin-3-yl)ethan-1-one] yielded a half-maximal inhibitory concentration (IC50) of 100 to 1000 nM.

`COc1cc(-c2cn(C)c(=O)c3cnccc23)cc(OC)c1CN1CC(N)C1` [Compound B20, 4-[4-[(3-aminoazetidin-1-yl)methyl]-3,5-dimethoxyphenyl]-2-methyl-1,2-dihydro-2,7-naphthyridin-1-one] had an IC50 of less than 10 nM.

In turn, `COc1cc(-c2cn(C)c(=O)c3cnccc23)cc(OC)c1CN1CC(C(=O)O)C1` [Compound B21, 1-[[2,6-dimethoxy-4-(2-methyl-1-oxo-1,2-dihydro-2,7-naphthyridin-4-yl)phenyl]methyl]azetidine-3-carboxylic acid] came in with an IC50 of 10 to 100 nM.

In turn, `COc1cc(-c2cn(C3CC3)c(=O)c3cnccc23)cc(OC)c1CN(C)C` [Compound B22, 2-cyclopropyl-4-[4-[(dimethylamino)methyl]-3,5-dimethoxyphenyl]-2,7-naphthyridin-1-one] registered an IC50 of 10 to 100 nM.

As to `COc1cc(C#N)ccc1S(=O)(=O)Nc1ccc2c(c1)cc(C)c(=O)n2C` [Compound B26], the IC50 is greater than 1000 nM.

As to `COc1cc(-c2cc(N)c(=O)n(C)c2)cc(OC)c1CN(C)C` [Compound B28, 3-amino-5-(4-((dimethylamino)methyl)-3,5-dimethoxyphenyl)-1-methylpyridin-2(1H)-one], the IC50 lay within 10 to 100 nM.

`COc1cc(-c2cc(NC(C)=O)c(=O)n(C)c2)cc(OC)c1CN(C)C` [Compound B29, N-(5-[4-[(dimethylamino)methyl]-3,5-dimethoxyphenyl]-1-methyl-2-oxo-1,2-dihydropyridin-3-yl)acetamide] showed an IC50 of 100 to 1000 nM.

Molecule `CCC(=O)Nc1cc(-c2cc(OC)c(CN(C)C)c(OC)c2)cn(C)c1=O` [Compound B30, N-(5-[4-[(dimethylamino)methyl]-3,5-dimethoxyphenyl]-1-methyl-2-oxo-1,2-dihydropyridin-3-yl)propanamide] registered an IC50 of 100 to 1000 nM.

Molecule `CCC(=O)Nc1c(C)c(-c2cc(OC)c(CN(C)C)c(OC)c2)cn(C)c1=O` [Compound B31, N-(5-[4-[(dimethylamino)methyl]-3,5-dimethoxyphenyl]-1,4-dimethyl-2-oxo-1,2-dihydropyridin-3-yl)propanamide] displayed an IC50 greater than 1000 nM.

`CCOC(=O)Nc1cc(-c2cc(OC)c(CN(C)C)c(OC)c2)cn(C)c1=O` [Compound B32]: the IC50 lay in the range of 10 to 100 nM.

`COc1cc(-c2cn(C)c(=O)c3nccnc23)cc(OC)c1CN(C)C` [Compound B33, 8-[4-[(dimethylamino)methyl]-3,5-dimethoxyphenyl]-6-methylpyrido[3,4-b]pyrazin-5-one]: the IC50 lay in the range of 100 to 1000 nM.

`CNC(=O)C1CN(Cc2c(OC)cc(-c3cn(C)c(=O)c4cnccc34)cc2OC)C1` [Compound B34, 1-[[2,6-dimethoxy-4-(2-methyl-1-oxo-1,2-dihydro-2,7-naphthyridin-4-yl)phenyl]methyl]-N-methylazetidine-3-carboxamide formic acid] gave an IC50 of less than 10 nM.

In the case of `CSc1cc(-c2cn(C)c(=O)c3cnccc23)ccc1CN(C)C` [Compound B36, 4-[4-[(dimethylamino)methyl]-3-(methylsulfanyl)phenyl]-2-methyl-1,2-dihydro-2,7-naphthyridin-1-one], the IC50 was in the range of 10 to 100 nM.

On to `CN(C)Cc1ccc(-c2cn(C)c(=O)c3cnccc23)cc1S(C)(=O)=O` [Compound B37, 4-[4-[(dimethylamino)methyl]-3-methanesulfonylphenyl]-2-methyl-2,7-naphthyridin-1-one], for which the IC50 lay within 100 to 1000 nM.

`COc1cc(-c2cn(C)c(=O)c3cnccc23)cc(OC)c1CN(C)S(C)(=O)=O` [Compound B38, N-[[2,6-dimethoxy-4-(2-methyl-1-oxo-2,7-naphthyridin-4-yl)phenyl]methyl]-N-methylmethanesulfonamide] gave an IC50 of less than 10 nM.

With `COc1cc(-c2cn(C)c(=O)c3cnccc23)cc(OC)c1CN(C)S(=O)(=O)C1CC1` [Compound B39, N-[[2,6-dimethoxy-4-(2-methy-1-oxo-2,7-naphthyridin-4-yl)phenyl]methyl]-N-methyl cyclopropanesulfonamide], the IC50 is less than 10 nM.

Turning to `COc1cc(-c2cn(C)c(=O)c3cnccc23)cc(OC)c1CN(C)S(=O)(=O)CC(C)C` [Compound B40, N-[[2,6-dimethoxy-4-(2-methyl-1-oxo-2,7-naphthyridin-4-yl)phenyl]methyl]-N,2-dimethylpropane-1-sulfonamide], the IC50 was less than 10 nM.

Molecule `COc1cc(-c2cn(C)c(=O)c3cnccc23)cc(OC)c1CN1CC(CC(=O)O)C1` [Compound B41, 2-(1-[[2,6-dimethoxy-4-(2-methyl-1-oxo-1,2-dihydro-2,7-naphthyridin-4-yl)phenyl]methyl]azetidin-3-yl)acetic acid formic acid] came in with an IC50 of 10 to 100 nM.

Molecule `CCOC(=O)Nc1c(C)c(-c2cc(OC)c(CN(C)C)c(OC)c2)cn(C)c1=O` [Compound B42, ethyl N-(5-[4-[(dimethylamino)methyl]-3,5-dimethoxyphenyl]-1,4-dimethyl-2-oxo-1,2-dihydropyridin-3-yl)carbamate] returned an IC50 greater than 1000 nM.

In turn, `COc1cc(-c2cn(C)c(=O)c3[nH]ncc23)cc(OC)c1CN(C)C` [Compound B43, 4-(4-((dimethyllamino)methyl)-3,5-dimethoxyphenyl)-6-methyl-1,6-dihydro-7H-pyrazolo[3,4-c]pyridin-7-one] showed an IC50 of less than 10 nM.

Turning to `COc1cc(-c2cn(C)c(=O)c3cnccc23)cc(OC)c1CN1CC(C(=O)NCCCCCCCCNc2ccccc2)C1` [Compound B44, 1-[[2,6-dimethoxy-4-(2-methyl-1-oxo-1,2-dihydro-2,7-naphthyridin-4-yl)phenyl]methyl]-N-[8-(phenylamino)octyl]azetidine-3-carboxamide], the IC50 is less than 10 nM.

`COc1cc(-c2cn(C)c(=O)c3cnccc23)cc(OC)c1CN1CC[C@H]1C(=O)O` [Compound B45, (2S)-1-[[2,6-dimethoxy-4-(2-methyl-1-oxo-2,7-naphthyridin-4-yl)phenyl]methyl] azetidine-2-carboxylic acid] registered an IC50 of 10 to 100 nM.

For the molecule `COc1cc(-c2cn(C)c(=O)c3[nH]cnc23)cc(OC)c1CN(C)C` [Compound B47, 7-[4-[(dimethylamino)methyl]-3,5-dimethoxyphenyl]-5-methyl-3H-imidazo[4,5-c]pyridin-4-one formic acid], the IC50 lay in the range of 10 to 100 nM.

`COc1cc(-c2cc(C)c(=O)n(C)c2)cc(OC)c1CN1CC(C(=O)O)C1` [Compound B48, 1-[[4-(1,5-dimethyl-6-oxopyridin-3-yl)-2,6-dimethoxyphenyl]methyl]azetidine-3-carboxylic acid]: the IC50 fell in the range of 100 to 1000 nM.

On to `COc1cc(-c2cn(C)c(=O)c3cnccc23)cc(OC)c1CN(C)S(=O)(=O)C(C)C` [Compound B49, N-[[2,6-dimethoxy-4-(2-methyl-1-oxo-2,7-naphthyridin-4-yl)phenyl]methyl]-N-methyl propane-2-sulfonamide], for which the IC50 fell in the range of 10 to 100 nM.

`COc1cc(-c2cn(C)c(=O)c3cnncc23)cc(OC)c1CN(C)C` [Compound B52, 8-[4-[(dimethylamino)methyl]-3,5-dimethoxyphenyl]-6-methyl-5H,6H-pyrido[3,4-d]pyridazin-5-one] had an IC50 of 10 to 100 nM.
